≈ marks a conversion by molar mass, not a printed value. Read-outs that look alike come from different tables or passages of the source.
What was measured:
Assay in all cases: Bactericidal activity test (MBC measurement)
S. aureus ATCC 6538 = type: cell-based, Staphylococcus aureus
Description: (§1) Each strain was cultured in Trypticase Soy agar medium for 18 to 20 hr, suspended in 0.1% peptone saline, and prepared to OD 600 nm, 1.0 McFarland. The suspension was further diluted with 0.1% peptone saline to give a test bacteria solution (targeted value; 2×10^7 CFU/mL).
(§2) At 0.5, 1 and 3 min from the start of the reaction, a part of the reaction mixture was sampled and mixed with an equal amount of a neutralizing agent (10% Tween 80, 3% lecithin/aqueous solution) to terminate the bactericidal reaction. The reaction mixture was inoculated to a 96 well microplate dispensed with 180 μL of Tripticase Soy liquid medium in advance, and statically cultured at 37° C. for 20 to 24 hr. Thereafter, the presence or absence of growth was visually evaluated, and the minimum concentration at which growth was not observed was taken as the minimal bactericidal concentration (MBC value) of each action time. The numerical values in the Tables show MBC, the unit is μg/mL, S. aureus means Staphylococcus aureus, MRSA means methicillin-resistant Staphylococcus aureus, E. coli means Escherichia coli, and P. aeruginosa means Pseudomonas aeruginosa.

E. coli ATCC 25922 = type: cell-based, Escherichia coli
Description: as §1, §2

P. aeruginosa ATCC 27853 = type: cell-based, Pseudomonas aeruginosa
Description: as §1, §2

MRSA ATCC 33591 = type: cell-based, methicillin-resistant Staphylococcus aureus
Description: as §1, §2

P. aeruginosa PAO-1 = type: cell-based, Pseudomonas aeruginosa
Description: as §1, §2

[1] = Staphylococcus aureus, ATCC6538, 0.5 min, S. aureus ATCC 6538, action time 0.5 min, read-out: MBC
[2] = Staphylococcus aureus, ATCC6538, 1 min, S. aureus ATCC 6538, action time 1 min, read-out: MBC
[3] = Staphylococcus aureus, ATCC6538, 0.05 h, S. aureus ATCC 6538, action time 3 min, read-out: MBC
[4] = Escherichia coli, ATCC25922, 0.5 min, E. coli ATCC 25922, action time 0.5 min, read-out: MBC
[5] = Escherichia coli, ATCC25922, 1 min, E. coli ATCC 25922, action time 1 min, read-out: MBC
[6] = Escherichia coli, ATCC25922, 0.05 h, E. coli ATCC 25922, action time 3 min, read-out: MBC
[7] = Pseudomonas aeruginosa, ATCC27853, 0.5 min, P. aeruginosa ATCC 27853, action time 0.5 min, read-out: MBC
[8] = Pseudomonas aeruginosa, ATCC27853, 1 min, P. aeruginosa ATCC 27853, action time 1 min, read-out: MBC
[9] = Pseudomonas aeruginosa, ATCC27853, 0.05 h, P. aeruginosa ATCC 27853, action time 3 min, read-out: MBC
[10] = Staphylococcus aureus, 0.5 min, MRSA ATCC 33591, action time 0.5 min, read-out: MBC
[11] = Staphylococcus aureus, 1 min, MRSA ATCC 33591, action time 1 min, read-out: MBC
[12] = Staphylococcus aureus, 0.05 h, MRSA ATCC 33591, action time 3 min, read-out: MBC
[13] = S. aureus ATCC 6538, action time 0.5 min
[14] = S. aureus ATCC 6538, action time 1 min
[15] = P. aeruginosa ATCC 27853, action time 0.5 min
[16] = MRSA ATCC 33591, action time 0.5 min
[17] = MRSA ATCC 33591, action time 1 min
[18] = MRSA ATCC 33591, action time 3 min

Molecule	MBC (S. aureus ATCC 6538; [1])	MBC (S. aureus ATCC 6538; [2])	MBC (S. aureus ATCC 6538; [3])	MBC (E. coli ATCC 25922; [4])	MBC (E. coli ATCC 25922; [5])	MBC (E. coli ATCC 25922; [6])	MBC (P. aeruginosa ATCC 27853; [7])	MBC (P. aeruginosa ATCC 27853; [8])	MBC (P. aeruginosa ATCC 27853; [9])	MBC (MRSA ATCC 33591; [10])	MBC (MRSA ATCC 33591; [11])	MBC (MRSA ATCC 33591; [12])	also measured
CCCCCCCCCCCCCCN(C)C1=NC(C)(C)NC(N)=N1.Cl [Example 18, N^4-tetradecyl-N^4-methyl-1,6-dihydro-6,6-dimethyl-1,3,5-triazine-2,4-diamine hydrochloride]	18.8 µg/mL	12.5 µg/mL	4.7 µg/mL	12.5 µg/mL	12.5 µg/mL	6.3 µg/mL	18.8 µg/mL	12.5 µg/mL	9.4 µg/mL	18.8 µg/mL	9.4 µg/mL	4.7 µg/mL	
CCCCCCCCNC1=NC(C)(C)NC(N(C)CCc2ccccc2)=N1 [Example 14, 1,6-dihydro-6,6-dimethyl-N^4-octyl-N^2-methyl-N^2-(2-phenylethyl)-1,3,5-triazine-2,4-diamine]	75 µg/mL (≈ 202 µM)	37.5 µg/mL (≈ 101 µM)	18.8 µg/mL (≈ 50.6 µM)	25 µg/mL (≈ 67.3 µM)	25 µg/mL (≈ 67.3 µM)	12.5 µg/mL (≈ 33.6 µM)	25 µg/mL (≈ 67.3 µM)	18.8 µg/mL (≈ 50.6 µM)	12.5 µg/mL (≈ 33.6 µM)	62.5 µg/mL (≈ 168 µM)	31.3 µg/mL (≈ 84.2 µM)	15.7 µg/mL (≈ 42.3 µM)	
CC(=O)O.CCCCCCCCCCCCNC1=NC(N2CCN(C)CC2)=NC(C)(C)N1 [Example 10, N-dodecyl-6,6-dimethyl-4-(4-methylpiperazin-1-yl)-1,6-dihydro-1,3,5-triazine-2-amine acetate]	75 µg/mL	50 µg/mL	12.5 µg/mL	25 µg/mL	25 µg/mL	25 µg/mL	25 µg/mL	18.8 µg/mL	18.8 µg/mL	50 µg/mL	50 µg/mL	12.5 µg/mL	
CCCCCCCCCCCCNC1=NC(N2CCOCC2)=NCN1 [Example 8, 1,6-dihydro-N-dodecyl-4-(morpholin-4-yl)-1,3,5-triazine-2-amine]	37.5 µg/mL (≈ 107 µM)	25 µg/mL (≈ 71.1 µM)	9.4 µg/mL (≈ 26.7 µM)	18.8 µg/mL (≈ 53.5 µM)	12.5 µg/mL (≈ 35.6 µM)	9.4 µg/mL (≈ 26.7 µM)	12.5 µg/mL (≈ 35.6 µM)	12.5 µg/mL (≈ 35.6 µM)	9.4 µg/mL (≈ 26.7 µM)	37.5 µg/mL (≈ 107 µM)	18.8 µg/mL (≈ 53.5 µM)	6.3 µg/mL (≈ 17.9 µM)	
1,6-dihydro-6,6-dimethyl-N^4-decyl-N^2-benzyl-N^2-methyl-1,3,5-triazine-2,4-diamine gluconate [Example 3]													MBC (S. aureus ATCC 6538; [13]): 25 µg/mL; MBC (S. aureus ATCC 6538; [14]): 25 µg/mL; MBC (P. aeruginosa PAO-1; P. aeruginosa PAO-1, action time 0.5 min): 25 µg/mL; MBC (P. aeruginosa PAO-1; P. aeruginosa PAO-1, action time 1 min): 25 µg/mL; MBC (P. aeruginosa PAO-1; P. aeruginosa PAO-1, action time 3 min): 25 µg/mL; MBC (P. aeruginosa ATCC 27853; [15]): 25 µg/mL; MBC (P. aeruginosa ATCC 27853; P. aeruginosa ATCC 27853, action time 1 min): 25 µg/mL; MBC (P. aeruginosa ATCC 27853; P. aeruginosa ATCC 27853, action time 3 min): 25 µg/mL; MBC (MRSA ATCC 33591; [16]): 25 µg/mL; MBC (MRSA ATCC 33591; [17]): 25 µg/mL; MBC (MRSA ATCC 33591; [18]): 25 µg/mL
CCCCCCCCCCNC1=NC(N2Cc3ccccc3C2)=NC(C)(C)N1 [Example 12, N-decyl-4-(1,3-dihydro-2H-isoindol-2-yl)-6,6-dimethyl-1,6-dihydro-1,3,5-triazine-2-amine]	25 µg/mL (≈ 65.2 µM)	18.8 µg/mL (≈ 49 µM)	4.7 µg/mL (≈ 12.3 µM)	18.8 µg/mL (≈ 49 µM)	18.8 µg/mL (≈ 49 µM)	15.7 µg/mL (≈ 40.9 µM)	37.5 µg/mL (≈ 97.8 µM)	37.5 µg/mL (≈ 97.8 µM)	18.8 µg/mL (≈ 49 µM)	25 µg/mL (≈ 65.2 µM)	12.5 µg/mL (≈ 32.6 µM)	6.3 µg/mL (≈ 16.4 µM)	
CCCCCCCCCCNC1=NC(C)(C)NC(N(C)CCC)=N1 [Example 16, 1,6-dihydro-6,6-dimethyl-N^4-decyl-N^2-methyl-N^2-propyl-1,3,5-triazine-2,4-diamine]	75 µg/mL (≈ 222 µM)	50 µg/mL (≈ 148 µM)	25 µg/mL (≈ 74.1 µM)	18.8 µg/mL (≈ 55.7 µM)	18.8 µg/mL (≈ 55.7 µM)	9.4 µg/mL (≈ 27.8 µM)	25 µg/mL (≈ 74.1 µM)	18.8 µg/mL (≈ 55.7 µM)	18.8 µg/mL (≈ 55.7 µM)	100 µg/mL (≈ 296 µM)	37.5 µg/mL (≈ 111 µM)	18.8 µg/mL (≈ 55.7 µM)	
CC(=O)O.CCCCCCCCCCNC1=NC(N2CCCCC2)=NC(C)(C)N1 [Example 11, N-decyl-6,6-dimethyl-4-(piperidin-1-yl)-1,6-dihydro-1,3,5-triazine-2-amine acetate]	50 µg/mL	37.5 µg/mL	25 µg/mL	18.8 µg/mL	18.8 µg/mL	18.8 µg/mL	25 µg/mL	25 µg/mL	18.8 µg/mL	75 µg/mL	62.5 µg/mL	31.3 µg/mL	
CC(=O)O.CCCCCCCCNC1=NC(C)(C)NC(N(CC)Cc2ccccc2)=N1 [Example 13, 1,6-dihydro-6,6-dimethyl-N^4-octyl-N^2-benzyl-N^2-ethyl-1,3,5-triazine-2,4-diamine acetate]	50 µg/mL	25 µg/mL	18.8 µg/mL	25 µg/mL	18.8 µg/mL	12.5 µg/mL	18.8 µg/mL	18.8 µg/mL	18.8 µg/mL	62.5 µg/mL	37.5 µg/mL	18.8 µg/mL	
CCCCCCCCCCCNC1=NC(C)(C)NC(N(C)Cc2ccc(N)cc2)=N1.Cl.Cl [Example 17, 1,6-dihydro-6,6-dimethyl-N^4-undecyl-N^2-(4-aminobenzyl)-N^2-methyl-1,3,5-triazine-2,4-diamine dihydrochloride]	25 µg/mL	15.7 µg/mL	7.8 µg/mL	25 µg/mL	18.8 µg/mL	12.5 µg/mL	37.5 µg/mL	18.8 µg/mL	9.4 µg/mL	18.8 µg/mL	12.5 µg/mL	6.3 µg/mL	
N=C(NCCCCCCNC(=N)NC(=N)Nc1ccc(Cl)cc1)NC(=N)Nc1ccc(Cl)cc1.O=C(O)[C@H](O)[C@@H](O)[C@H](O)[C@H](O)CO.O=C(O)[C@H](O)[C@@H](O)[C@H](O)[C@H](O)CO [control, chlorhexidine gluconate, reference compound]													MBC (S. aureus ATCC 6538; [13]): >200 µg/mL; MBC (S. aureus ATCC 6538; [14]): >200 µg/mL; MBC (S. aureus ATCC 6538; S. aureus ATCC 6538, action time 3 min): >200 µg/mL; MBC (E. coli ATCC 25922; E. coli ATCC 25922, action time 0.5 min): 100 µg/mL; MBC (P. aeruginosa ATCC 27853; [15]): >200 µg/mL; MBC (MRSA ATCC 33591; [16]): >200 µg/mL; MBC (MRSA ATCC 33591; [17]): >200 µg/mL; MBC (MRSA ATCC 33591; [18]): 200 µg/mL
